# Values joined by “and” are separate entries in the source; they are usually repeats but may differ in a detail not shown here. Identical values can stand only once.
# Key:
# [1] = Single ascending dose study in healthy elderly subjects: Urolithin A glucuronide in urine (Example 6, Part A); format: in vivo, human; details: mean ± standard error
# Procedure: A single (Part A) and multiple (Part B) dose study of urolithin A was conducted to evaluate the safety, tolerability, pharmacokinetics and pharmacodynamics profile in healthy elderly subjects.
# Part A: The study was a double-blind, randomized, single ascending doses, study in 24 healthy elderly male and female volunteers. Each subject was randomized for two subsequent doses in three cohorts.
# 1100 mg soft gel capsule containing 250 mg of urolithin A (as described in Example 2 above). Soft gel capsules were blister-packed in bulk, Labelling was in accordance with local regulatory specifications and requirements.
# Part A: Single oral dose administration on D1 of each period according to the randomisation. The administration took place around 8:00 am with around 200 mL tap water, in sitting position, and under fasting conditions.
# Cohort 1 (8 subjects): 250 mg urolithin A (6 subjects) or placebo (2 subjects) capsule soft gel formulation then 2000 mg urolithin A or placebo capsule soft gel formulation. Cohort 2 (8 subjects): 500 mg urolithin A (6 subjects) or placebo (2 subjects) capsule soft gel formulation. Cohort 3 (8 subjects): 1000 mg urolithin A (6 subjects) or placebo (2 subjects) capsule soft gel formulation.
# In Part A of the study, total urine was collected during the following intervals: 0-4 h, 4-8 h, 8-12 h, 12-24 h and 24-36 h post-dose. The collected urine volume of each collection period was carefully measured by weight and recorded in the eCRF, as well as the exact start and stop time of the collection interval. Each fraction of collected urine was homogenized and 2 aliquots of 5 mL per interval were kept and stored below −80° C. Following a protocol amendment to extend the blood sampling scheme from 36 to 96 h post-dose, additional spot urine samples were taken 72 and 96 h post-dose but urine was not collected quantitatively.
# The concentrations of Urolithin A and its metabolites in urine was determined using validated LC-MS/MS assays. The limit of quantification (LOQ) was 10 ng/mL for Urolithin A in urine and 50 ng/mL for Urolithin A glucuronide and Urolithin A sulphate in urine.
# [2] = Study of pomegranate juice and oral urolithin A: urolithin A glucuronide in dried blood spots (Example 3); format: in vivo, human; details: dried blood spot, 24 hours after 500 mg Urolithin A softgel capsule; individual subjects 1-7; listed as UA
# Procedure: A study was conducted in seven subjects. At the beginning of the study a sample of capillary blood via a finger prick was taken from each subject and 15-20 uL of whole blood was dried onto a dried blood sample (DBS) filter paper sample card (Whatman, Little Chalfont, Buckinghamshire, UK). A minimum of 2 spots per sampling were collected for each time-point. At T0 i.e. baseline sample, subjects ingested 80 ml pomegranate juice (freshly prepared/). At 24 hours following pomegranate juice intake, a further dried blood spot sample was taken and 15-20 uL of whole blood was dried onto a DBS filter paper card. Following this, subjects ingested 500 mg of Urolithin A in a softgel capsule and then at 48 hours (or 24 hours following UA intake), a further dried blood spot sample was taken and 15-20 uL of whole blood was dried onto DBS filter paper sample card.
# This analytical method was developed to analyse whole blood spot samples collected on dry blood spot sample cards (DBS Filter card) in Example 3.
# Each dried blood spot was punched from cards using a 6 mm diameter puncher and transferred into a tube. Afterwards 150 μL of methanol containing the internal standard was added. […]
# The quantification of UA-glucuronide was performed by column separation with reversed-phase chromatography followed by detection with triple-stage quadrupole MS/MS in the selected reaction monitoring mode.
smiles,measurement,setting,value
O=c1oc2cc(O)ccc2c2ccc(O)cc12 [Urolithin A],Urolithin A glucuronide in urine,"[1]; 250 mg dose, Predose","4,114 ± 1,261 ng/mL"
same,Urolithin A glucuronide in urine,"[1]; 250 mg dose, T0-T4 h","8,536 ± 1,394 ng/mL"
same,Urolithin A glucuronide in urine,"[1]; 250 mg dose, T4 h-T8 h","31,617 ± 7,637 ng/mL"
same,Urolithin A glucuronide in urine,"[1]; 250 mg dose, T8 h-T12 h","40,453 ± 9,275 ng/mL"
same,Urolithin A glucuronide in urine,"[1]; 250 mg dose, T12 h-T24 h","62,817 ± 8,454 ng/mL"
same,Urolithin A glucuronide in urine,"[1]; 250 mg dose, T24 h-T36 h","33,962 ± 8,708 ng/mL"
same,Urolithin A glucuronide in urine,"[1]; 500 mg dose, Predose","4,114 ± 1,261 ng/mL"
same,Urolithin A glucuronide in urine,"[1]; 500 mg dose, T0-T4 h","40,167 ± 6,802 ng/mL"
same,Urolithin A glucuronide in urine,"[1]; 500 mg dose, T96 spot urine","8,720 ± 3,113 ng/mL"
same,Urolithin A glucuronide in urine,"[1]; 500 mg dose, T4 h-T8 h","86,758 ± 12,051 ng/mL"
same,Urolithin A glucuronide in urine,"[1]; 500 mg dose, T8 h-T12 h","63,800 ± 9,043 ng/mL"
same,Urolithin A glucuronide in urine,"[1]; 500 mg dose, T12 h-T24 h","81,125 ± 10,792 ng/mL"
same,Urolithin A glucuronide in urine,"[1]; 500 mg dose, T24 h-T36 h","44,242 ± 4,631 ng/mL"
same,Urolithin A glucuronide in urine,"[1]; 500 mg dose, T72 h spot urine","15,706 ± 3,751 ng/mL"
same,Urolithin A glucuronide in urine,"[1]; 1000 mg dose, Predose","4,114 ± 1,261 ng/mL"
same,Urolithin A glucuronide in urine,"[1]; 1000 mg dose, T0-T4 h","70,492 ± 12,094 ng/mL"
same,Urolithin A glucuronide in urine,"[1]; 1000 mg dose, T96 spot urine","16,335 ± 3,897 ng/mL"
same,Urolithin A glucuronide in urine,"[1]; 1000 mg dose, T4 h-T8 h","76,417 ± 10,635 ng/mL"
same,Urolithin A glucuronide in urine,"[1]; 1000 mg dose, T8 h-T12 h","64,967 ± 8,075 ng/mL"
same,Urolithin A glucuronide in urine,"[1]; 1000 mg dose, T12 h-T24 h","107,983 ± 17,683 ng/mL"
same,Urolithin A glucuronide in urine,"[1]; 1000 mg dose, T24 h-T36 h","59,575 ± 9,560 ng/mL"
same,Urolithin A glucuronide in urine,"[1]; 1000 mg dose, T72 h spot urine","29,412 ± 5,717 ng/mL"
same,Urolithin A glucuronide in urine,"[1]; 2000 mg dose, Predose","4,114 ± 1,261 ng/mL"
same,Urolithin A glucuronide in urine,"[1]; 2000 mg dose, T0-T4 h","39,500 ± 6,033 ng/mL"
same,Urolithin A glucuronide in urine,"[1]; 2000 mg dose, T96 spot urine","38,487 ± 12,858 ng/mL"
same,Urolithin A glucuronide in urine,"[1]; 2000 mg dose, T4 h-T8 h","65,317 ± 10,853 ng/mL"
same,Urolithin A glucuronide in urine,"[1]; 2000 mg dose, T8 h-T12 h","50,450 ± 5,793 ng/mL"
same,Urolithin A glucuronide in urine,"[1]; 2000 mg dose, T12 h-T24 h","114,817 ± 12,123 ng/mL"
same,Urolithin A glucuronide in urine,"[1]; 2000 mg dose, T24 h-T36 h","60,533 ± 12,216 ng/mL"
same,Urolithin A glucuronide in urine,"[1]; 2000 mg dose, T72 h spot urine","70,567 ± 17,054 ng/mL"
same,500 mg single UA dosing 24 h UA levels,[2],153 ng/mL and 93.0 ng/mL and 98.0 ng/mL and 125 ng/mL and 134 ng/mL and 173 ng/mL

# Reference: patent US20210210190A1, “Diagnostic Method” (Amazentis SA, priority 2019, published 2021)
